Assays:
Type in all cases: cell-based, human
[1] = tested on: breast adenocarcinoma (MCF7) cells; experiment: Antiproliferative MTT assay, MCF-7; conditions: for IC50: Homo sapiens, MCF7, 72 h incubation, MTT, mean ± SD; for SI (MCF-7): SI = [IC50 HFF]/[IC50 MCF-7]
Experimental: (§1) The human ATCC tumor cell lines breast adenocarcinoma (MCF7), colorectal carcinoma (HT-29), pancreatic ductal adenocarcinoma (CFPAC-1), hepatocellular carcinoma (HepG2), and normal skin fibroblasts (HFF) derived from ATCC (American Type Culture Collection) were cultured in Dulbecco’s Modified Eagle Medium (DMEM) or Minimum Essential Medium (MEM) supplemented with 10% fetal bovine serum (FBS), 2 mM L-glutamine, 100 U/mL penicillin, and 100 µg/mL streptomycin (Lonza, Basel, Switzerland) in a humidified atmosphere with 5% CO2 at 37 °C. For the experiment, carcinoma cell lines and normal human cell lines were seeded in 96-well microtiter plates at a density of 3000 cells per well and 5000 cells per well, respectively, depending on the doubling time of the specific cell line. The test substances were then added at fivefold, tenfold dilutions (0.01 to 100 µM), freshly prepared in the growth medium on the day of testing, and incubated for a further 72 h. After 72 h of incubation, the growth rate of the cells was determined using the MTT assay according to the manufacturer’s guidelines. […] The IC50 values were calculated from the dose–response curves using linear regression analysis. The experiment was performed in tetraplicates in two individual experiments.
(§2) Newly synthesized compounds were evaluated for their cytotoxic activity in vitro against four human cancer cell lines, including human breast adenocarcinoma (MCF-7), ductal pancreatic adenocarcinoma (CFPAC-1), colorectal carcinoma (HT-29), and hepatocellular carcinoma (HepG2), as well as on non-cancerous skin fibroblasts (HFF-1), to check for non-specific toxicity. Furthermore, 5-Fluorouracil (5-FU) was used as a reference drug. The results are expressed as 50% inhibitory concentration (IC50) values and are listed in Table 2, Table 3, Table 4 and Table 5.

[2] = tested on: pancreatic ductal adenocarcinoma (CFPAC-1) cells; experiment: Antiproliferative MTT assay, CFPAC-1; conditions: for IC50: 72 h incubation, MTT, mean ± SD; for SI (CFPAC-1): SI = [IC50 HFF]/[IC50 CFPAC-1]
Experimental: as §1, §2

[3] = tested on: colorectal carcinoma (HT-29) cells; experiment: Antiproliferative MTT assay, HT-29; conditions: for IC50: 72 h incubation, MTT, mean ± SD; for SI (HT-29): SI = [IC50 HFF]/[IC50 HT-29]
Experimental: as §1, §2

[4] = tested on: hepatocellular carcinoma (HepG2) cells; experiment: Antiproliferative MTT assay, HepG2; conditions: for IC50: Homo sapiens, HepG2, 72 h, 72 h incubation, MTT, mean ± SD; for SI (HepG2): SI = [IC50 HFF]/[IC50 HepG2]
Experimental: as §1, §2

[5] = tested on: normal skin fibroblasts (HFF-1); experiment: Cytotoxicity MTT assay, normal skin fibroblasts; conditions: 72 h incubation, mean ± SD
Experimental: as §1, §2

Row | SMILES | IC50 [1] [µM] | IC50 ([2]; Homo sapiens, CFPAC-1, 72 h) [µM] | IC50 ([3]; Homo sapiens, HT-29, 72 h) [µM] | IC50 [4] [µM] | IC50 [2] [µM] | IC50 [3] [µM] | SI (MCF-7) [1] | SI (CFPAC-1) [2] | IC50 ([5]; Homo sapiens, HFF-1, 72 h) [µM] | SI (HT-29) [3] | SI (HepG2) [4] | IC50 [5] [µM]
1 | OCC(c1ccccc1)n1cc(Cn2ccc3c(Cl)ncnc32)nn1 (stereo not drawn) [Compound 41a, 4-Chloro-7-((1-(2-hydroxy-1-phenylethyl)-1H-1,2,3-triazol-4-yl)methyl)-7H-pyrrolo[2,3-d]pyrimidine] | 39 ± 7.1 | 33 ± 4.5 | 33 ± 3.2 | 38 ± 1.8 | – | – | 1.6 | 1.9 | 62 ± 23.3 | – | – | –
2 | OCC(c1ccc(F)cc1)n1cc(Cn2cnc3c(Cl)ncnc32)nn1 (stereo not drawn) [Compound 37a, 6-Chloro-9-((1-(2-hydroxy-1-(4-fluorophenyl)ethyl)-1H-1,2,3-triazol-4-yl)methyl)-9H-purine] | 38 ± 15.7 | 50 ± 12.4 | 41 ± 2.3 | 37 ± 12.9 | – | – | – | – | 64 ± 6.3 | 1.6 | 1.7 | –
3 | O=c1[nH]cc(F)c(=O)[nH]1 [Compound 5-FU, 5-Fluorouracil, reference compound] | 1 ± 0.8 | 0.14 ± 0.1 | 0.23 | 9 ± 1.3 | 0.1 ± 0.1 | 0.2 | 0.9 | – | 0.94 | 4.5 | 0.1 | 0.9
4 | OC(Cn1cc(Cn2ccc3ccccc32)nn1)c1ccc(C(F)(F)F)cc1 (stereo not drawn) [Compound 30b, 1-((1-(2-Hydroxy-2-(4-(trifluoromethyl)phenyl)ethyl)-1H-1,2,3-triazol-4-yl)methyl)-1H-indol] | 22 ± 3.4 | 27 ± 0.7 | 51 ± 15.3 | 65 ± 2.4 | – | – | – | 0.7 | 18 ± 0.6 | – | – | –
5 | OC(Cn1cc(Cn2ccc3ccccc32)nn1)c1ccc(F)cc1 (stereo not drawn) [Compound 27b, 1-((1-(2-Hydroxy-2-(4-fluorophenyl)ethyl)-1H-1,2,3-triazol-4-yl)methyl)-1H-indole] | > 100 | > 100 | > 100 | > 100 | – | – | – | – | > 100 | – | – | –
6 | OC(Cn1cc(Cn2cnc3ccccc32)nn1)c1ccc(C(F)(F)F)cc1 (stereo not drawn) [Compound 35b, 1-((1-(2-Hydroxy-2-(4-(trifluoromethyl)phenyl)ethyl)-1H-1,2,3-triazol-4-yl)methyl)-1H-benzimidazole] | 31 ± 13.7 | 36 ± 1.3 | 67 ± 2.9 | 67 ± 3.5 | – | – | – | 0.6 | 22 ± 18.1 | – | – | –
7 | OC(Cn1cc(Cn2cnc3c(Cl)nccc32)nn1)c1ccc(Cl)cc1 (stereo not drawn) [Compound 48b, 4-Chloro-1-((1-(2-hydroxy-2-(4-chlorophenyl)ethyl)-1H-1,2,3-triazol-4-yl)methyl)-1H-imidazo[4,5-c]pyridine] | > 100 | > 100 | > 100 | > 100 | – | – | – | – | > 100 | – | – | –
8 | OC(Cn1cc(Cn2ccc3ccccc32)nn1)c1ccc(Cl)cc1 (stereo not drawn) [Compound 28b, 1-((1-(2-Hydroxy-2-(4-chlorophenyl)ethyl)-1H-1,2,3-triazol-4-yl)methyl)-1H-indol] | 35 ± 16.2 | 35 ± 19.8 | 46 ± 18.4 | 66 ± 2.7 | – | – | – | >2.9 | > 100 | – | – | –
9 | OCC(c1ccccc1)n1cc(Cn2cnc3c(Cl)ncnc32)nn1 (stereo not drawn) [Compound 36a, 6-Chloro-9-((1-(2-hydroxy-1-phenylethyl)-1H-1,2,3-triazol-4-yl)methyl)-9H-purine] | 53 ± 5.5 | 60 ± 0.9 | 54 ± 7.4 | 55 ± 2.4 | – | – | – | – | > 100 | >1.9 | >1.8 | –
10 | OC(Cn1cc(Cn2ccc3c(Cl)ncnc32)nn1)c1ccccc1 (stereo not drawn) [Compound 41b, 4-Chloro-7-((1-(2-hydroxy-2-phenylethyl)-1H-1,2,3-triazol-4-yl)methyl)-7H-pyrrolo[2,3-d]pyrimidine] | 44 ± 17.4 | 49 ± 11.3 | 50 ± 1.3 | 50 ± 10.2 | – | – | 1.0 | 0.9 | 44 ± 14.1 | – | – | –
11 | OCC(c1ccc(F)cc1)n1cc(Cn2ccc3ccccc32)nn1 (stereo not drawn) [Compound 27a, 1-((1-(2-Hydroxy-1-(4-fluorophenyl)ethyl)-1H-1,2,3-triazol-4-yl)methyl)-1H-indole] | 51 ± 6.7 | 68 ± 12.7 | 47 ± 16.9 | 49 ± 2.5 | – | – | – | 0.6 | 42 ± 10.5 | – | – | –
12 | OCC(c1ccc(F)cc1)n1cc(Cn2cnc3ccccc32)nn1 (stereo not drawn) [Compound 32a, 1-((1-(2-Hydroxy-1-(4-fluorophenyl)ethyl)-1H-1,2,3-triazol-4-yl)methyl)-1H-benzimidazole] | 98 ± 2.8 | > 100 | > 100 | 74 ± 0.6 | – | – | – | – | > 100 | – | – | –
13 | OC(Cn1cc(Cn2cnc3c(Cl)nccc32)nn1)c1ccc(F)cc1 (stereo not drawn) [Compound 47b, 4-Chloro-1-((1-(2-hydroxy-2-(4-fluorophenyl)ethyl)-1H-1,2,3-triazol-4-yl)methyl)-1H-imidazo[4,5-c]pyridine] | 21 ± 2.6 | 18 ± 0.8 | 65 ± 12.6 | 55 ± 8.8 | – | – | – | – | 18 ± 2.9 | – | 0.3 | –

The next lines start with results.

Row | IC50 [1] [µM] | IC50 ([2]; Homo sapiens, CFPAC-1, 72 h) [µM] | IC50 ([3]; Homo sapiens, HT-29, 72 h) [µM] | IC50 [4] [µM] | IC50 [2] [µM] | IC50 [3] [µM] | SMILES | SI (MCF-7) [1] | SI (CFPAC-1) [2] | IC50 ([5]; Homo sapiens, HFF-1, 72 h) [µM] | SI (HT-29) [3] | SI (HepG2) [4] | IC50 [5] [µM]
14 | 33 ± 5.8 | 31 ± 5.3 | 33 ± 7.8 | 21 ± 0.8 | – | – | O[C@H](Cn1cc(Cn2ccc3c(Cl)ncnc32)nn1)c1ccc(Cl)cc1 [Compound (S)-43b, (S)-4-Chloro-7-((1-(2-hydroxy-2-(4-chlorophenyl)ethyl)-1H-1,2,3-triazol-4-yl)methyl)-7H-pyrrolo[2,3-d]pyrimidine] | 1.2 | 1.3 | 41 ± 1.1 | – | – | –
15 | 41 | 13 ± 2.7 | 33 ± 0.2 | 49 ± 2 | – | – | O[C@H](Cn1cc(Cn2ccc3c(Cl)ncnc32)nn1)c1ccc(F)cc1 [Compound (S)-42b, (S)-4-Chloro-7-((1-(2-hydroxy-2-(4-fluorophenyl)ethyl)-1H-1,2,3-triazol-4-yl)methyl)-7H-pyrrolo[2,3-d]pyrimidine] | 1.8 | 5.6 | 73 ± 2.4 | – | – | –
16 | 64 ± 4.8 | 60 ± 10.3 | 51 ± 17.8 | 39 ± 10.5 | – | – | O[C@@H](Cn1cc(Cn2cnc3c(Cl)ncnc32)nn1)c1ccc(Cl)cc1 [Compound (R)-38b] | – | – | 31 ± 13.4 | 0.6 | 0.8 | –
17 | 43 ± 4.6 | 49 ± 8.7 | 45 ± 4 | 38 ± 7.6 | – | – | O[C@@H](Cn1cc(Cn2ccc3c(Cl)ncnc32)nn1)c1ccc(C(F)(F)F)cc1 [Compound (R)-45b, (R)-4-Chloro-7-((1-(2-hydroxy-2-(4-(trifluoromethyl)phenyl)ethyl)-1H-1,2,3-triazol-4-yl)methyl)-7H-pyrrolo[2,3-d]pyrimidin] | 0.5 | 0.4 | 21 ± 3.8 | – | – | –
18 | 46 ± 2.7 | 58 ± 12.1 | 46 ± 2.3 | 52 ± 2.7 | – | – | O[C@@H](Cn1cc(Cn2ccc3c(Cl)ncnc32)nn1)c1ccccc1 [Compound (R)-41b, (R)-4-Chloro-7-((1-(2-hydroxy-2-phenylethyl)-1H-1,2,3-triazol-4-yl)methyl)-7H-pyrrolo[2,3-d]pyrimidine] | 0.5 | 0.4 | 23 ± 5.8 | – | – | –
19 | 58 ± 1.9 | 51 ± 11.7 | 47 ± 16.8 | 28 ± 7.5 | – | – | O[C@H](Cn1cc(Cn2cnc3c(Cl)ncnc32)nn1)c1ccc(Cl)cc1 [Compound (S)-38b] | – | – | 81 ± 1.8 | 1.7 | 2.9 | –

From paper PMC11940194, “Synthesis, Antiproliferative Activity, and ADME Profiling of Novel Racemic and Optically Pure Aryl-Substituted Purines and Purine Bioisosteres” (Biomolecules, 2025)
